Results on 27 molecules are retold here after patent publication US10508120B2, “TYK2 inhibitors and uses thereof” (Nimbus Lakshmi, Inc., priority 2017, dated 2019).

Assay [1] has as its target human TYK2 (JH2domain-pseudokinase) (Homo sapiens (Human), UniProt P29597). Briefly: TYK2 JH2 Domain Binding Assay (KINOMEscan). In a few lines:
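Pseudokinase domain binding was measured by qPCR of tagged, bead-retained kinase after 1 h room-temperature competition, with 0.9% DMSO and compound up to 30,000 nM in 3-fold steps. Hill-equation Kd, duplicate.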

Assay [2] deals with Tyk2 kinase domain (DH1) (Homo sapiens (Human), UniProt P29597). As to the kind of experiment: Tyk2 Radioactive Kinase Assay. The class given is biochemical. As to conditions: for inhibition at 10 µM: read-out: Tyk2 JH1% Inhibition @ 10 μM. How it is done: The Tyk2 and JAK2 radioactive kinase assay measures the percent inhibition at the Tyk2 kinase domain (DH1) and the percent inhibition at the JAK2 kinase domain (JH1). Results of the assay are expressed as percent inhibition at 10 μM.
Sequence of Tyk2 kinase domain (DH1) (P29597 897-1176): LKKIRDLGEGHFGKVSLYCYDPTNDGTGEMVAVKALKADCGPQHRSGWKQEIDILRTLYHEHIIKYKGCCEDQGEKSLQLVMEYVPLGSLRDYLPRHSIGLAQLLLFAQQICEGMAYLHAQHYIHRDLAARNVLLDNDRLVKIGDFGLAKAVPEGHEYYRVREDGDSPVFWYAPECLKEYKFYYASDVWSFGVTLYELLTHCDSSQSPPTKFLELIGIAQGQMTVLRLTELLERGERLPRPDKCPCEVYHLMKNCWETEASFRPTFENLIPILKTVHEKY

The target of assay [3] is JAK2 kinase domain (JH1) (Homo sapiens (Human), UniProt O60674). Briefly: JAK2 Radioactive Kinase Assay. The following applies: for inhibition at 10 µM: read-out: JAK2 JH1% Inhibition @ 10 μM. It is filed as biochemical. In a few lines:
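Single-point screen: 10 μM test compound, radioactive kinase read-out, percent inhibition reported for each kinase domain.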

Where two headings read alike, the source gives them in different places. A value given as a limit tells only on which side of the number the result lay.

Sequence of JAK2 kinase domain (JH1) (O60674 849-1124): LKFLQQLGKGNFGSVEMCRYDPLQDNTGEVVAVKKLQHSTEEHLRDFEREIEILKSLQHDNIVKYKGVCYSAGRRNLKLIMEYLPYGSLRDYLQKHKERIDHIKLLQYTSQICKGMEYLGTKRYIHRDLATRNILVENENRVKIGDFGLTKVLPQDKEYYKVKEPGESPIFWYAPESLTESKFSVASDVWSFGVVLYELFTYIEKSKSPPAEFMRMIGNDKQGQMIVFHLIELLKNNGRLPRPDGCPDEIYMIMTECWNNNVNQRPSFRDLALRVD
Sequence of human TYK2 (JH2domain-pseudokinase) (P29597 556-888): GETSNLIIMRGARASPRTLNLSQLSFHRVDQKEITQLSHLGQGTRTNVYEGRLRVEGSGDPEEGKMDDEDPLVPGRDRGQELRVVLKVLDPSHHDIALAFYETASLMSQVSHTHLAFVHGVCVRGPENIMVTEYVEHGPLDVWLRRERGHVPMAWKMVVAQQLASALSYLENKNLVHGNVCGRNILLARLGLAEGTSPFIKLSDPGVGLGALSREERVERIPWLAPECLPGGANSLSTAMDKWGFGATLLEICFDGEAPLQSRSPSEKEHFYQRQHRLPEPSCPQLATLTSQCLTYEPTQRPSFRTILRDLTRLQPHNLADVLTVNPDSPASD

In the case of `CNc1cc(Nc2cccn([C@@H]3CCCOC3)c2=O)nc2c(C(=O)N[C@H]3CC[C@H](O)C3)cnn12` (stereo in doubt) [I-702, N-(3-hydroxycyclopentyl)-7-(methylamino)-5-((2-oxo-1-((S)-tetrahydro-2H-pyran-3-yl)-1,2-dihydropyridin-3-yl)amino)pyrazolo[1,5-a]pyrimidine-3-carboxamide], in assay [1], the Kd fell in the range of 0.2 to 1 nM. Besides, the inhibition at 10 µM was below 50% in assay [2] (compound at 10 μM, ATP 10 μM) and below 50% in assay [3] (compound at 10 μM, ATP 10 μM).
`CNc1cc(Nc2cccn([C@H]3CCCOC3)c2=O)nc2c(C(=O)N[C@H]3CCC[C@H](O)C3)cnn12` (stereo in doubt) [I-704, N-(3-hydroxycyclohexyl)-7-(methylamino)-5-((2-oxo-1-((R)-tetrahydro-2H-pyran-3-yl)-1,2-dihydropyridin-3-yl)amino)pyrazolo[1,5-a]pyrimidine-3-carboxamide] showed a Kd in assay [1] of 0.2 to 1 nM. In addition, the inhibition at 10 µM in assay [2] (compound at 10 μM, ATP 10 μM) was below 50%; in assay [3] (compound at 10 μM, ATP 10 μM), below 50%.
The molecule `CNc1cc(-c2cn(C(C)C)c3ncccc23)nc2c(C(=O)N[C@H]3C[C@@H]3O)cnn12` (stereo in doubt) [I-733, N-((1 S,2S)-2-hydroxycyclopropyl)-5-(1-isopropyl-1H-pyrrolo[2,3-b]pyridin-3-yl)-7-(methylamino)pyrazolo[1,5-a]pyrimidine-3-carboxamide] showed an equilibrium dissociation constant (Kd) in assay [1] below 0.2 nM. Besides, the inhibition at 10 µM in assay [2] (compound at 10 μM, ATP 10 μM) was below 50%; in assay [3] (compound at 10 μM, ATP 10 μM), below 50%.
In the case of `CNc1cc(-c2cn(C(C)C)c3ncccc23)nc2c(C(=O)N[C@H]3COC[C@H]3O)cnn12` (stereo in doubt) [I-764, N-(4-hydroxytetrahydrofuran-3-yl)-5-(1-isopropyl-1H-pyrrolo[2,3-b]pyridin-3-yl)-7-(methylamino)pyrazolo[1,5-a]pyrimidine-3-carboxamide], the dissociation constant (Kd) in assay [1] was below 0.2 nM. Besides, the inhibition at 10 µM in assay [2] (compound at 10 μM, ATP 10 μM) was below 50%; in assay [3] (compound at 10 μM, ATP 10 μM), below 50%.
For `CNc1cc(-c2cn(CCN3CCOCC3)c3ncccc23)nc2c(C(=O)N[C@H]3COC[C@H]3O)cnn12` (stereo in doubt) [I-791, N-(4-hydroxytetrahydrofuran-3-yl)-7-(methylamino)-5-(1-(2-morpholinoethyl)-1H-pyrrolo[2,3-b]pyridin-3-yl)pyrazolo[1,5-a]pyrimidine-3-carboxamide], the Kd in assay [1] was in the range of 0.2 to 1 nM. Moreover, the inhibition at 10 µM in assay [2] (compound at 10 μM, ATP 10 μM) is below 50%; in assay [3] (compound at 10 μM, ATP 10 μM), below 50%.
For `CNc1cc(-c2cn(CCN3CCN(C)CC3)c3ncccc23)nc2c(C(=O)N[C@H]3CC[C@H]3O)cnn12` (stereo in doubt) [I-851, N-(2-hydroxycyclobutyl)-7-(methylamino)-5-(1-(2-(4-methylpiperazin-1-yl)ethyl)-1H-pyrrolo[2,3-b]pyridin-3-yl)pyrazolo[1,5-a]pyrimidine-3-carboxamide], the dissociation constant (Kd) in assay [1] is below 0.2 nM. The inhibition at 10 µM was below 50% in assay [2] (10 μM compound, 10 μM ATP) and below 50% in assay [3] (10 μM compound, 10 μM ATP).
For the molecule `CNc1cc(-c2cn(CCN3CCN(C)CC3)c3ncccc23)nc2c(C(=O)N[C@H]3CC[C@@H]3O)cnn12` (stereo in doubt) [I-852, N-(2-hydroxycyclobutyl)-7-(methylamino)-5-(1-(2-(4-methylpiperazin-1-yl)ethyl)-1H-pyrrolo[2,3-b]pyridin-3-yl)pyrazolo[1,5-a]pyrimidine-3-carboxamide], in assay [1], the Kd is below 0.2 nM. Further, the inhibition at 10 µM in assay [2] (10 μM compound, 10 μM ATP) was below 50%; in assay [3] (10 μM compound, 10 μM ATP), below 50%.
Take `CNc1cc(-c2cn(CCN3CCN(C)CC3)c3ncccc23)nc2c(C(=O)N[C@H]3CC[C@@H]3OC)cnn12` (stereo in doubt) [I-885, N-(2-methoxycyclobutyl)-7-(methylamino)-5-(1-(2-(4-methylpiperazin-1-yl)ethyl)-1H-pyrrolo[2,3-b]pyridine-3-yl)pyrazolo[1,5-a]pyrimidine-3-carboxamide]: the Kd in assay [1] was below 0.2 nM. The inhibition at 10 µM is below 50% in assay [2] (10 μM compound, 10 μM ATP) and below 50% in assay [3] (10 μM compound, 10 μM ATP).
Consider `CNc1cc(Nc2cccnc2OC)nc2c(C(=O)N[C@H]3CC[C@@]3(C)O)cnn12` (stereo in doubt) [I-911, N-(2-hydroxy-2-methylcyclobutyl)-5-((2-methoxypyridin-3-yl)amino)-7-(methylamino)pyrazolo[1,5-a]pyrimidine-3-carboxamide], for which the Kd in assay [1] lay within 1 to 10 nM. Besides, in assay [2] (10 μM compound, 10 μM ATP), the “Tyk2 JH1% Inhibition @ 10 μM” value was “A (percent inhibition at 10 μM lower than 50)”. Also, in assay [3] (10 μM compound, 10 μM ATP), the “JAK2 JH1% Inhibition @ 10 μM” value is “A (percent inhibition at 10 μM lower than 50)”.
`CNc1cc(Nc2cccn([C@H]3C[C@@H]3F)c2=O)nc2c(C(=O)NCC3(CO)CC3)cnn12` (stereo in doubt) [I-1061, 5-((1-(2-fluorocyclopropyl)-2-oxo-1,2-dihydropyridin-3-yl)amino)-N-((1-(hydroxymethyl)cyclopropyl)methyl)-7-(methylamino)pyrazolo[1,5-a]pyrimidine-3-carboxamide] had a dissociation constant (Kd) in assay [1] below 0.2 nM. Besides, the inhibition at 10 µM is below 50% in assay [2] (10 μM compound, 10 μM ATP) and below 50% in assay [3] (10 μM compound, 10 μM ATP).
Turning to `CNC(=O)c1occc1Nc1cc(NC)n2ncc(C(=O)N[C@H]3CC[C@@H]3OC)c2n1` (stereo in doubt) [I-1111, N-(2-methoxycyclobutyl)-7-(methylamino)-5-((2-(methylcarbamoyl)furan-3-yl)amino)pyrazolo[1,5-a]pyrimidine-3-carboxamide], in assay [1], the Kd was below 0.2 nM. Moreover, the inhibition at 10 µM was below 50% in assay [2] (10 μM compound, 10 μM ATP) and below 50% in assay [3] (10 μM compound, 10 μM ATP).
In assay [1], `CNc1cc(Nc2cccn(C3CCCCC3)c2=O)nc2c(C(=O)N[C@H]3COC[C@H]3O)cnn12` (stereo in doubt) [I-1112, 5-((1-cyclohexyl-2-oxo-1,2-dihydropyridin-3-yl)amino)-N-(4-hydroxytetrahydrofuran-3-yl)-7-(methylamino)pyrazolo[1,5-a]pyrimidine-3-carboxamide] came in with an equilibrium dissociation constant (Kd) of 0.2 to 1 nM. In addition, the inhibition at 10 µM in assay [2] (10 μM compound, 10 μM ATP) is below 50%; in assay [3] (10 μM compound, 10 μM ATP), below 50%.
`CNc1cc(Nc2cccn(C(C)C)c2=O)nc2c(C(=O)N[C@H]3CC[C@@]3(C)O)cnn12` (stereo in doubt) [I-1116, N-(2-hydroxy-2-methylcyclobutyl)-5-((1-isopropyl-2-oxo-1,2-dihydropyridin-3-yl)amino)-7-(methylamino)pyrazolo[1,5-a]pyrimidine-3-carboxamide]: the Kd in assay [1] is above 10 nM. Besides, the inhibition at 10 µM in assay [2] (10 μM compound, 10 μM ATP) is below 50%; in assay [3] (10 μM compound, 10 μM ATP), below 50%.
For the molecule `CNc1cc(Nc2cccn(-c3ccc(N4CCOCC4)cc3)c2=O)nc2c(C(N)=O)cnn12` [I-10], the equilibrium dissociation constant (Kd) in assay [1] was below 0.2 nM. Further, the inhibition at 10 µM in assay [2] (compound at 10 μM, ATP 10 μM) was below 50%; in assay [3] (compound at 10 μM, ATP 10 μM) it was below 50%.
Regarding `CNc1cc(Nc2cnn(C)c2)nc2c(C(N)=O)cnn12` [I-11], in assay [1], the dissociation constant (Kd) was in the range of 1 to 10 nM. In addition, the inhibition at 10 µM is below 50% in assay [2] (compound at 10 μM, ATP 10 μM) and below 50% in assay [3] (compound at 10 μM, ATP 10 μM).
For `CNc1cc(Nc2cccn(C3CCCCC3)c2=O)nc2c(C(N)=O)cnn12` [I-12], the dissociation constant (Kd) in assay [1] is 1 to 10 nM. Also, the inhibition at 10 µM was below 50% in assay [2] (compound at 10 μM, ATP 10 μM) and below 50% in assay [3] (compound at 10 μM, ATP 10 μM).
For `CNc1cc(Nc2cccn(-c3nccs3)c2=O)nc2c(C(N)=O)cnn12` [I-15], the Kd in assay [1] lay in the range of 0.2 to 1 nM. Also, the inhibition at 10 µM is below 50% in assay [2] (compound at 10 μM, ATP 10 μM) and below 50% in assay [3] (compound at 10 μM, ATP 10 μM).
Turning to `CNc1cc(Nc2cccc(N3CCOCC3)c2Cl)nc2c(C(N)=O)cnn12` [I-18], in assay [1], the equilibrium dissociation constant (Kd) is below 0.2 nM. In addition, the inhibition at 10 µM in assay [2] (compound at 10 μM, ATP 10 μM) was below 50%; in assay [3] (compound at 10 μM, ATP 10 μM), below 50%.
In turn, `CCOc1ccc(-n2cccc(Nc3cc(NC)n4ncc(C(N)=O)c4n3)c2=O)nn1` [I-19] had a Kd in assay [1] of 1 to 10 nM. The inhibition at 10 µM in assay [2] (compound at 10 μM, ATP 10 μM) is below 50%; in assay [3] (compound at 10 μM, ATP 10 μM), below 50%.
`CNc1cc(Nc2cccn(-c3ccn(C4CC4)n3)c2=O)nc2c(C(N)=O)cnn12` [I-20] yielded a Kd in assay [1] below 0.2 nM. Moreover, the inhibition at 10 µM in assay [2] (compound at 10 μM, ATP 10 μM) was below 50%; in assay [3] (compound at 10 μM, ATP 10 μM) it was below 50%.
Turning to `Cc1cc(C)cc(Nc2cc(N)n3ncc(C(N)=O)c3n2)c1` [I-21], the dissociation constant Kd in assay [1] lay within 0.2 to 1 nM. For the same molecule, the inhibition at 10 µM in assay [2] (compound at 10 μM, ATP 10 μM) was below 50%; in assay [3] (compound at 10 μM, ATP 10 μM) it was 70 to 90%.
The molecule `NC(=O)c1cnn2c(N)cc(Nc3cccc(N4CCOCC4)c3Cl)nc12` [I-22] yielded a Kd in assay [1] of 0.2 to 1 nM. The inhibition at 10 µM in assay [2] (compound at 10 μM, ATP 10 μM) is below 50%; in assay [3] (compound at 10 μM, ATP 10 μM) it was 70 to 90%.
For `NC(=O)c1cnn2c(N)cc(Nc3cccc(N4CCCC4)c3Cl)nc12` [I-23], in that order: 1 to 10 nM, below 50% and 70 to 90%.
On the same counts, the results for `CNc1cc(Nc2cccnc2OC)nc2c(C(N)=O)cnn12` [I-24] are below 0.2 nM, below 50% and below 50%.
On the same counts, the results for `NC(=O)c1cnn2c(N)cc(Nc3cccn(-c4ccc(F)cc4)c3=O)nc12` [I-25] are 0.2 to 1 nM, below 50% and below 50%.
With `CNc1cc(Nc2cc(C)cn(-c3ccn(C)n3)c2=O)nc2c(C(N)=O)cnn12` [I-26], in assay [1], the Kd was below 0.2 nM. Moreover, the inhibition at 10 µM in assay [2] (compound at 10 μM, ATP 10 μM) was below 50%; in assay [3] (compound at 10 μM, ATP 10 μM), below 50%.
In assay [1], `CNc1cc(Nc2cc(C)nc(N3CCCC3)c2)nc2c(C(N)=O)cnn12` [I-27] came in with a dissociation constant (Kd) of 1 to 10 nM. Besides, the inhibition at 10 µM in assay [2] (compound at 10 μM, ATP 10 μM) was below 50%; in assay [3] (compound at 10 μM, ATP 10 μM), below 50%.
